ChEMBL document CHEMBL1136200, “Potent and selective inhibitors of platelet-derived growth factor receptor phosphorylation. Part 4: structure-activity relationships for substituents on the quinazoline moiety of 4-[4-(N-substituted(thio)carbamoyl)-1-piperazinyl]-6,7-dimethoxyquinazoline derivatives” (Bioorg Med Chem Lett, 2003)

target: Platelet-derived growth factor receptor beta (Homo sapiens, UniProt P09619); test: Inhibitory concentration against platelet-derived growth factor receptor beta phosphorylation in CHO cells; type: functional, cell-based, Cricetulus griseus
Sequence (P09619 whole entry): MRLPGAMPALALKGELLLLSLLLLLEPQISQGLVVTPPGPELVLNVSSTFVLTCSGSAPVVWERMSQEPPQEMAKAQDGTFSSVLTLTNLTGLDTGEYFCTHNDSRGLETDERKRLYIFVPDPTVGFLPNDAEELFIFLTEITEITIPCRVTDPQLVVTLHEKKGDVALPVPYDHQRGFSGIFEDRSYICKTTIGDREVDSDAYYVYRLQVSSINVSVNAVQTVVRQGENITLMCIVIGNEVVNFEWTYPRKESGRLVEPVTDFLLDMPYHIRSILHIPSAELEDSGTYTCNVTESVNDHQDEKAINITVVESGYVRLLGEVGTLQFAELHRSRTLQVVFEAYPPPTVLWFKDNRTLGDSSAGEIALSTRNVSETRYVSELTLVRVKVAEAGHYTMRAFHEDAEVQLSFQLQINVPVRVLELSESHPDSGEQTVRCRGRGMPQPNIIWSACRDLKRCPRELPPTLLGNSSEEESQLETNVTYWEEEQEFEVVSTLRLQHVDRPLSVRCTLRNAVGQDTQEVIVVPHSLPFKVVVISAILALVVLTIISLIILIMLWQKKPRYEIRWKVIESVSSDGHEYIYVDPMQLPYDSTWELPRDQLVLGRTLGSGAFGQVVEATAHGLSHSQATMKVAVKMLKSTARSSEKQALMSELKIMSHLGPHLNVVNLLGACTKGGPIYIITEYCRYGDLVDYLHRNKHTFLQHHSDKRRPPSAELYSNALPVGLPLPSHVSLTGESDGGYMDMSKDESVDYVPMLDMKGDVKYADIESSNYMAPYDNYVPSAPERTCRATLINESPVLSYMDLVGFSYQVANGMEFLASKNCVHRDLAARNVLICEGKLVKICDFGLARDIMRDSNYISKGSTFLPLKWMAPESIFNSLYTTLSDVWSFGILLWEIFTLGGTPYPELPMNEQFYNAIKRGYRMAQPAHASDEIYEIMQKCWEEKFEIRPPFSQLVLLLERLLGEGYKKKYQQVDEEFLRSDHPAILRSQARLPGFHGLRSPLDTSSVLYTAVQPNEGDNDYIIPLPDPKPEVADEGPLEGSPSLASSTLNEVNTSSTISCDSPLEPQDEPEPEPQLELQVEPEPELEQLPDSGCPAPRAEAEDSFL

Row | SMILES | IC50
1 | O=C(Nc1ccc(Oc2ccccc2)cc1)N1CCN(c2ncnc3cc(F)c(F)cc23)CC1 | 970 nM
2 | O=C(Nc1ccc(Oc2ccccc2)cc1)N1CCN(c2ncnc3cc([N+](=O)[O-])ccc23)CC1 | 2880 nM
3 | O=[N+]([O-])c1cc2c(N3CCN(C(=S)NCc4ccccc4)CC3)ncnc2cc1Cl | > 30000 nM
4 | S=C(NCc1ccccc1)N1CCN(c2ncnc3cc(Cl)ccc23)CC1 | 5160 nM
5 | COC(=O)c1ccc2c(N3CCN(C(=O)Nc4ccc(Oc5ccccc5)cc4)CC3)ncnc2c1 | > 750 nM
6 | CC(C)Oc1ccc2c(N3CCN(C(=O)Nc4ccc(Oc5ccccc5)cc4)CC3)ncnc2c1 | 1120 nM
7 | O=C(O)c1ccc2c(N3CCN(C(=O)Nc4ccc(Oc5ccccc5)cc4)CC3)ncnc2c1 | > 30000 nM
8 | Nc1cc2c(N3CCN(C(=S)NCc4ccccc4)CC3)ncnc2cc1Cl | 160 nM
9 | CC(=O)Nc1cc2c(N3CCN(/C(S)=N\Cc4ccccc4)CC3)ncnc2cc1Cl | > 1000 nM
10 | Cc1cccc2ncnc(N3CCN(C(=O)Nc4ccc(Oc5ccccc5)cc4)CC3)c12 | 6250 nM
11 | Nc1cc2ncnc(N3CCN(C(=O)Nc4ccc(Oc5ccccc5)cc4)CC3)c2cc1[N+](=O)[O-] | 1160 nM
12 | O=C(Nc1ccc(Oc2ccccc2)cc1)N1CCN(c2ncnc3ccc(Br)cc23)CC1 | 1380 nM
13 | O=C(Nc1ccc(Oc2ccccc2)cc1)N1CCN(c2ncnc3ccc(I)cc23)CC1 | 5170 nM
14 | COc1cccc2c(N3CCN(C(=O)Nc4ccc(Oc5ccccc5)cc4)CC3)ncnc12 | 10700 nM
15 | Cc1ccc2c(N3CCN(C(=O)Nc4ccc(Oc5ccccc5)cc4)CC3)ncnc2c1 | > 100 nM
16 | Cc1ccc2ncnc(N3CCN(C(=O)Nc4ccc(Oc5ccccc5)cc4)CC3)c2c1 | 540 nM
17 | O=C(Nc1ccc(Oc2ccccc2)cc1)N1CCN(c2ncnc3ccc(F)cc23)CC1 | 350 nM
18 | O=C(Nc1ccc(Oc2ccccc2)cc1)N1CCN(c2ncnc3cc(Cl)c([N+](=O)[O-])cc23)CC1 | 1320 nM
19 | O=C(Nc1ccc(Oc2ccccc2)cc1)N1CCN(c2ncnc3ccc([N+](=O)[O-])cc23)CC1 | 29700 nM
